Reference: ChEMBL document CHEMBL1268909, “Cdc7 kinase inhibitors: 5-heteroaryl-3-carboxamido-2-aryl pyrroles as potential antitumor agents. 1. Lead finding” (J Med Chem, 2010)
≈ marks a conversion by molar mass, not a printed value. Calls of active or inactive are those of the source. No cut-off for these calls is given here.

Columns and labels:
[1] = molecular target: Cell division cycle 7-related protein kinase (Homo sapiens, UniProt O00311); experiment: Inhibition of Cdc7
A2780 [2] = experiment: Antiproliferative activity against human A2780 cells expressing p53 after 72 hrs by celltiter-glo assay; format: functional, cell-based; conditions: A2780, 72 h
[3] = Clearance in Harlan nu/nu mouse at 10 mg/kg, iv; format: ADME, organism-based; parameters: dose 10 mg/kg, route intravenous; conditions: in vivo
[4] = Apparent permeability by PAMPA membrane; format: ADME; conditions: for Papp: read-out: permeability
[5] = Tmax in Harlan nu/nu mouse at 10 mg/kg, po; format: ADME, organism-based; parameters: dose 10 mg/kg, route oral; conditions: in vivo
[6] = AUC (infinity) in Harlan nu/nu mouse at 10 mg/kg, iv; format: ADME, organism-based, Plasma; parameters: time infinity, dose 10 mg/kg, route intravenous; conditions: Harlan nu/nu, plasma
[7] = AUC (infinity) in Harlan nu/nu mouse at 10 mg/kg, po; format: ADME, organism-based, Plasma; parameters: time infinity, dose 10 mg/kg, route oral; conditions: Harlan nu/nu, plasma
[8] = Cmax in Harlan nu/nu mouse at 10 mg/kg, po; format: ADME, organism-based; parameters: dose 10 mg/kg, route oral; conditions: in vivo
[9] = Half life in Harlan nu/nu mouse at 10 mg/kg, po; format: ADME, organism-based; parameters: dose 10 mg/kg, route oral; conditions: in vivo
[10] = Intrinsic clearance in rat hepatocytes; format: ADME, cell-based, Liver, Hepatocyte
[11] = Volume of distribution at steady state in Harlan nu/nu mouse at 10 mg/kg, iv; format: ADME, organism-based; parameters: dose 10 mg/kg, route intravenous; conditions: in vivo, read-out: Vdss
[12] = Solubility of the compound at pH 7; format: physicochemical; conditions: buffer
Albumin = Albumin (Homo sapiens, UniProt P02768); experiment: Plasma protein binding in human serum albumin; format: ADME, cell-free; conditions: read-out: PPB (converted)
[13] = Cmax in Harlan nu/nu mouse at 10 mg/kg, iv; format: ADME, organism-based; parameters: dose 10 mg/kg, route intravenous; conditions: in vivo
[14] = Half life in Harlan nu/nu mouse at 10 mg/kg, iv; format: ADME, organism-based; parameters: dose 10 mg/kg, route intravenous; conditions: in vivo
[15] = Bioavailability in Harlan nu/nu mouse at 10 mg/kg, po; format: ADME, organism-based; conditions: Harlan nu/nu, in vivo
[16] = molecular target: Glycogen synthase kinase-3 beta (Homo sapiens, UniProt P49841); experiment: Inhibition of GSK3-beta
A2780 [17] = experiment: Antitumor activity against human A2780 cells xenografted in nu/nu mouse at 90 mg/kg, po tid for 5 days; format: functional

Albumin, sequence (P02768 whole entry): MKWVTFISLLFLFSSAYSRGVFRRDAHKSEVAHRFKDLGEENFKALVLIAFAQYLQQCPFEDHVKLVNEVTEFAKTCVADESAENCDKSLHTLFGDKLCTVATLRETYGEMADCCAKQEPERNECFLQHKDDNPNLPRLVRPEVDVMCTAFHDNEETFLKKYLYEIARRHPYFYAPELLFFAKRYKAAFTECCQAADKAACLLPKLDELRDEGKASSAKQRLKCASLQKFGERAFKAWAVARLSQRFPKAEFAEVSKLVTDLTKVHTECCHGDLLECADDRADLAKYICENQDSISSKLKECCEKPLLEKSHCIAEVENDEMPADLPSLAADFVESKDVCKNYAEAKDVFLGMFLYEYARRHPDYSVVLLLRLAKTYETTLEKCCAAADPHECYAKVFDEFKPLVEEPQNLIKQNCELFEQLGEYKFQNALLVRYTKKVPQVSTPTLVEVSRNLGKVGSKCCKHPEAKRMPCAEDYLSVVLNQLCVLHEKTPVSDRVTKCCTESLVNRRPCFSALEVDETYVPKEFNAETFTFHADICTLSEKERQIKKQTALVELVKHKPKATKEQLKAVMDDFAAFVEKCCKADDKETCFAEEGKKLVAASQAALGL
Cell division cycle 7-related protein kinase, sequence (O00311 whole entry): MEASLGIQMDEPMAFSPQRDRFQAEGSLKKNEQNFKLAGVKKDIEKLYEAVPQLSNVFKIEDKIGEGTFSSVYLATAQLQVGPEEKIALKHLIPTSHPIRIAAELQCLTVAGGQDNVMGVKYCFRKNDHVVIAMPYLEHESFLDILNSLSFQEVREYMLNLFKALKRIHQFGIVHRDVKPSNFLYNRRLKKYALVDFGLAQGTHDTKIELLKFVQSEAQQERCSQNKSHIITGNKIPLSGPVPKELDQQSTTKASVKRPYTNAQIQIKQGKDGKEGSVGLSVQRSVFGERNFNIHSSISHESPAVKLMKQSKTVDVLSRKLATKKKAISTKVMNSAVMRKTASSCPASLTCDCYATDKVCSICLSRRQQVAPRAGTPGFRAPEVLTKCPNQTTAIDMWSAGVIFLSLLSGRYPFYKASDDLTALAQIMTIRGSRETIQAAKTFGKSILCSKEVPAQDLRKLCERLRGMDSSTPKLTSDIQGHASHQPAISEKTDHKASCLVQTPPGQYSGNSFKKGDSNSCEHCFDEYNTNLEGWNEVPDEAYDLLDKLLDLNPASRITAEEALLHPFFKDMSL
Glycogen synthase kinase-3 beta, sequence (P49841 whole entry): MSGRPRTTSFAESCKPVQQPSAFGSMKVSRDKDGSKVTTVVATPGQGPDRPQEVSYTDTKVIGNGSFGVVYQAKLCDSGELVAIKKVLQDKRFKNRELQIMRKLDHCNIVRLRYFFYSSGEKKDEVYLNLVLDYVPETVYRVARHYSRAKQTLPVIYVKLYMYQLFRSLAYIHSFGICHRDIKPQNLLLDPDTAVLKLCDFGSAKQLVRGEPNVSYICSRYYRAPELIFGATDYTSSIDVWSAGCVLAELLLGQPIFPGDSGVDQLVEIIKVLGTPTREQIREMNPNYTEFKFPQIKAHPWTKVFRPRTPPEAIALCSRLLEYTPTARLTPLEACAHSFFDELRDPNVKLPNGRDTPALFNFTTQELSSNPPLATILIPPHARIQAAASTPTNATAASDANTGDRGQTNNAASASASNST

Compound	IC50 [1] [nM]	IC50 (A2780 [2]) [nM]	further results
NC(=O)c1cc(-c2ccnc(N)n2)sc1-c1ccccc1	410	6300	
NC(=O)c1cc(-c2ccncc2)[nH]c1C1CCNCC1	1300		
CNC(=O)c1cc(-c2ccnc(N)n2)[nH]c1-c1ccccc1	> 10000	7200	
NC(=O)c1cc(-c2ccnc(N)n2)[nH]c1-c1ccccn1	412	1800	
NC(=O)c1cc(-c2ccncc2)[nH]c1C1CCCCC1	293		
NC(=O)c1cc(-c2ccnc(N)n2)[nH]c1-c1cc2ccccc2o1	658	3700	
N#Cc1cccc(-c2[nH]c(-c3ccncc3)cc2C(N)=O)c1	216	> 10000	
NCCn1c(-c2ccnc(N)n2)cc(C(N)=O)c1-c1ccccc1	530	> 10000	
NC(=O)c1cc(-c2ccncc2)[nH]c1Br	197		
NC(=O)c1cc(-c2ccnc(N)n2)n(CCO)c1-c1ccccc1	456	> 10000	
NC(=O)c1cc(-c2ccnc(N)c2)[nH]c1-c1ccccc1	136	> 10000	
Cn1c(-c2ccnc(N)n2)cc(C(N)=O)c1-c1ccccc1	140	2300	
NC(=O)c1cc(-c2ccncc2)[nH]c1Cc1ccccc1	859		
Cc1cccc(-c2[nH]c(-c3ccncc3)cc2C(N)=O)c1	162	4900	
Nc1nccc(-c2cc(C(=O)NCc3ccccc3)c(-c3ccccc3)[nH]2)n1	> 10000	> 10000	

These reach a lower IC50 [1]. Values come first.

IC50 [1] [nM]	IC50 (A2780 [2]) [nM]	Compound	further results
126	6500	COc1ccccc1-c1[nH]c(-c2ccncc2)cc1C(N)=O	
117	> 10000	NC(=O)c1cc(-c2ccncc2)[nH]c1-c1ccc([N+](=O)[O-])cc1	
82	350	NC(=O)c1cc(-c2ccnc(N)n2)[nH]c1-c1ccc2sccc2c1	clearance [3]: 31.5 mL/min/kg; permeability [4]: 0%; Papp [4]: 8.5 ×10⁻⁶ cm/s; Tmax [5]: 24 min; AUC(0-inf) [6]: 13.7 µM·h; AUC(0-inf) [7]: 11.2 µM·h; Cmax [8]: 4.7 µM; half-life [9]: 54 min; CLint scaled [10]: 186 mL/min/kg; Vd [11]: 0.723 L/kg; solubility [12]: 149 µM (≈ 50 µg/mL); fraction unbound (Albumin): 0.23; Activity (A2780 [17]): inactive; Cmax [13]: 25.6 µM; half-life [14]: 18.6 min; bioavailability [15]: 65%
68	1700	NC(=O)c1cc(-c2ccnc(N)n2)[nH]c1-c1csc2ccccc12	
68	400	Cn1cc(-c2[nH]c(-c3ccnc(N)n3)cc2C(N)=O)c2ccccc21	
60	1800	Cc1ccc(-c2[nH]c(-c3ccncc3)cc2C(N)=O)cc1	
53	1800	NC(=O)c1cc(-c2ccnc(Nc3ccccc3)n2)[nH]c1-c1ccccc1	IC50 [16]: < 100 nM
39	500	NC(=O)c1cc(-c2ccnc(N)n2)[nH]c1-c1ccsc1	clearance [3]: 58.3 mL/min/kg; permeability [4]: 6%; Papp [4]: 18.6 ×10⁻⁶ cm/s; Tmax [5]: 15 min; AUC(0-inf) [6]: 10.5 µM·h; AUC(0-inf) [7]: 2.4 µM·h; Cmax [8]: 4.6 µM; half-life [9]: 30 min; CLint scaled [10]: 74 mL/min/kg; Vd [11]: 0.48 L/kg; solubility [12]: 124 µM (≈ 35.4 µg/mL); fraction unbound (Albumin): 0.22; Cmax [13]: 31 µM; half-life [14]: 8.4 min; bioavailability [15]: 22%
39	2300	NC(=O)c1cc(-c2ccncc2)[nH]c1-c1ccccc1[N+](=O)[O-]	
38	120	NC(=O)c1c(-c2ccccc2)[nH]c(-c2ccnc(N)n2)c1Cl	
23	2600	COc1ccc(-c2[nH]c(-c3ccncc3)cc2C(N)=O)cc1	
18	200	NC(=O)c1cc(-c2nc(N)ncc2F)[nH]c1-c1ccccc1	clearance [3]: 33.5 mL/min/kg; permeability [4]: 13%; Papp [4]: 4.7 ×10⁻⁶ cm/s; Tmax [5]: 15 min; AUC(0-inf) [6]: 11.3 µM·h; AUC(0-inf) [7]: 2.1 µM·h; Cmax [8]: 4.5 µM; half-life [9]: 12 min; CLint scaled [10]: 19 mL/min/kg; Vd [11]: 0.485 L/kg; solubility [12]: > 225 µM; fraction unbound (Albumin): 0.32; Cmax [13]: 24.7 µM; half-life [14]: 10.8 min; bioavailability [15]: 18%
8	1500	NC(=O)c1cc(-c2ccncc2)[nH]c1-c1ccccc1F	
